Experimental data: ChEMBL document CHEMBL1201862, “PubChem BioAssay data set” (2004)
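Protocol summary: plate cells (96-well), add compound at 5 concentrations, incubate 48 h, interpolate endpoints linearly. The concentration for 50% growth inhibition is given as GI50.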 Activity calls are given as the source filed them. No stated cut-off is given here; in the data, active = GI50 up to about 1.1 µM and inactive = higher.

How the values were obtained:
Experiment in all cases: NCI anticancer screen, dose series, 48 h
Malme-3M = system: Malme-3M
OVCAR-5 = system: OVCAR-5
SK-MEL-5 = system: SK-MEL-5
SK-MEL-28 = system: SK-MEL-28
KM12 = system: KM12
A549 = system: A549
UACC-257 = system: UACC-257
SK-OV-3 = system: SK-OV-3
COLO 205 = system: COLO 205
HCT-116 = system: HCT-116
NCI-H460 = system: NCI-H460
UO-31 = system: UO-31
MCF7 = system: MCF7
ACHN = system: ACHN
K562 = system: K562
SK-MEL-2 = system: SK-MEL-2
UACC-62 = system: UACC-62
LOX IMVI = system: LOX IMVI
HL-60 = system: HL-60
HOP-92 = system: HOP-92

SMILES | GI50 (Malme-3M) | GI50 (OVCAR-5) | GI50 (SK-MEL-5) | GI50 (SK-MEL-28) | GI50 (KM12) | GI50 (A549) | GI50 (UACC-257) | GI50 (SK-OV-3) | GI50 (COLO 205) | GI50 (HCT-116) | GI50 (NCI-H460) | GI50 (UO-31) | GI50 (MCF7) | GI50 (ACHN) | GI50 (K562) | GI50 (SK-MEL-2) | GI50 (UACC-62) | GI50 (LOX IMVI) | GI50 (HL-60) | GI50 (HOP-92)
COC(=O)[C@H]1[C@H](OC(=O)[C@@H](OC)c2ccccc2)ON2CC[C@@H](OC(=O)c3ccccc3)[C@H]12 | > 100 µM (inactive) | > 100 µM (inactive) | > 100 µM (inactive) | > 100 µM (inactive) | > 100 µM (inactive) | > 100 µM (inactive) | > 100 µM (inactive) | > 100 µM (inactive) | > 100 µM (inactive) | > 100 µM (inactive) | > 100 µM (inactive) | > 100 µM (inactive) | 3.83 µM (inactive) | 10.3 µM (inactive) | > 100 µM (inactive) | 48.1 µM (inactive) | 10.7 µM (inactive) | > 100 µM (inactive) | > 100 µM (inactive) | 30.3 µM (inactive)
COC1(OC)CCN(Cc2ccccc2)C1=O | > 100 µM (inactive) | 17.7 µM (inactive) | 15.3 µM (inactive) | 9.62 µM (inactive) | 17.4 µM (inactive) | 17.7 µM (inactive) | 14.2 µM (inactive) | 96.4 µM (inactive) | 4.54 µM (inactive) | 3.68 µM (inactive) | 18.7 µM (inactive) | 10.9 µM (inactive) | 4.39 µM (inactive) | 6.28 µM (inactive) | 3.27 µM (inactive) | 15.4 µM (inactive) | 10.9 µM (inactive) | 5.45 µM (inactive) | 1.69 µM (inactive) | 11.1 µM (inactive)
O=C1Cc2c(-c3ccccc3)cc(-c3ccc(Cl)cc3)nc2-c2ccccc2N1 | 5.02 µM (inactive) | 11 µM (inactive) | 3.65 µM (inactive) | 2.94 µM (inactive) | 7.89 µM (inactive) | 9.35 µM (inactive) | 14.2 µM (inactive) | 2.39 µM (inactive) | 2.96 µM (inactive) | 1.98 µM (inactive) | 3.21 µM (inactive) | 2.05 µM (inactive) | 8.89 µM (inactive) | 2.4 µM (inactive) | 19 µM (inactive) | 17.1 µM (inactive) | 5.57 µM (inactive) | 6.22 µM (inactive) | 14.5 µM (inactive) | 2.3 µM (inactive)
C/C(=N\NC(=[Se])N(C)C)c1ccccn1 | 0.47 µM (active) | 0.103 µM (active) | 0.0263 µM (active) | 1.91 µM (inactive) | 0.0234 µM (active) | 0.02 µM (active) | < 0.01 µM (active) | 0.0216 µM (active) | < 0.01 µM (active) | < 0.01 µM (active) | < 0.01 µM (active) | 0.457 µM (active) | < 0.01 µM (active) | < 0.01 µM (active) | < 0.01 µM (active) | 0.585 µM (active) | < 0.01 µM (active) | < 0.01 µM (active) | < 0.01 µM (active) | 1.09 µM (active)
O=C1OC(C2=CC(=O)c3ccccc3C2=O)C(Cl)=C1Cl (stereo not given) | 26.5 µM (inactive) | 36.3 µM (inactive) | 31.1 µM (inactive) | 41 µM (inactive) | 77.4 µM (inactive) | 89.5 µM (inactive) | 77.8 µM (inactive) | 79.6 µM (inactive) | 35 µM (inactive) | 32.4 µM (inactive) | 56.8 µM (inactive) | 13.7 µM (inactive) | 20.9 µM (inactive) | 15.8 µM (inactive) | 32.7 µM (inactive) | 14.1 µM (inactive) | 17.4 µM (inactive) | 20.2 µM (inactive) | 35.9 µM (inactive) | 47 µM (inactive)
C=C(C)C(=O)OC1C[C@H](COC(C)=O)C2CC=C(C)C2C2OC(=O)C(=C)[C@H]12 (stereo not given in full) | 1.55 µM (inactive) | 9.77 µM (inactive) | 7.5 µM (inactive) | 2.41 µM (inactive) | 11.7 µM (inactive) | 17 µM (inactive) | 4.09 µM (inactive) | 17.2 µM (inactive) | 2.54 µM (inactive) | 1.67 µM (inactive) | 15 µM (inactive) | 2.2 µM (inactive) | 4.11 µM (inactive) | 3.69 µM (inactive) | 1.87 µM (inactive) | 2.82 µM (inactive) | 4.54 µM (inactive) | 1.85 µM (inactive) | 0.815 µM (active) | 1.92 µM (inactive)
c1ccc2[nH]c3nc4ccccc4c-3cc2c1 | 0.92 µM (active) | 1.69 µM (inactive) | 0.698 µM (active) | 1.31 µM (inactive) | 0.348 µM (active) | 0.245 µM (active) | 0.637 µM (active) | 0.839 µM (active) | 0.207 µM (active) | < 0.0311 µM (active) | 0.128 µM (active) | 0.597 µM (active) | 0.304 µM (active) | 0.113 µM (active) | 0.189 µM (active) | 0.445 µM (active) | 0.632 µM (active) | 0.18 µM (active) | 0.192 µM (active) | 7.26 µM (inactive)
CN(C)c1ccc(C(Cc2ccccc2)C2NC(=S)NC2=O)cc1 (stereo not given) | > 74.8 µM (inactive) | > 100 µM (inactive) | > 100 µM (inactive) | > 100 µM (inactive) | > 100 µM (inactive) | > 100 µM (inactive) | > 100 µM (inactive) | 76.9 µM (inactive) | > 100 µM (inactive) | > 100 µM (inactive) | 99.8 µM (inactive) | > 100 µM (inactive) | > 100 µM (inactive) | > 100 µM (inactive) | 31.1 µM (inactive) | > 100 µM (inactive) | 67 µM (inactive) | > 100 µM (inactive) | 29.1 µM (inactive) | > 100 µM (inactive)
O=C1Sc2ccc(Br)cc2C(=O)Sc2ccccc21 | 2.24 µM (inactive) | 17.9 µM (inactive) | 14.4 µM (inactive) | 19.5 µM (inactive) | 16 µM (inactive) | 27.1 µM (inactive) | 13.8 µM (inactive) | 27.4 µM (inactive) | 13.2 µM (inactive) | 13 µM (inactive) | 15.8 µM (inactive) | 12.9 µM (inactive) | 16.4 µM (inactive) | 16.4 µM (inactive) | 12.8 µM (inactive) | 18.8 µM (inactive) | 16.8 µM (inactive) | 9.1 µM (inactive) | 2.42 µM (inactive) | 13.5 µM (inactive)
CCN(CC)CCCC(C)Nc1ccnc2cc(Cl)ccc12 (stereo not given) [CHLOROQUINE PHOSPHATE] | 20.9 µM (inactive) | 25.1 µM (inactive) | 26.2 µM (inactive) | 20.6 µM (inactive) | 31.8 µM (inactive) | 39.5 µM (inactive) | 23.1 µM (inactive) | > 76.7 µM (inactive) | 9.38 µM (inactive) | 12 µM (inactive) | 18 µM (inactive) | 14.9 µM (inactive) | 19.1 µM (inactive) | > 85.1 µM (inactive) | 12.4 µM (inactive) | 10 µM (inactive) | 28.8 µM (inactive) | 20.6 µM (inactive) | 13.3 µM (inactive) | 15.7 µM (inactive)
O=C(/C=C/c1ccccc1)CCN1CCOCC1 | 18.6 µM (inactive) | 15.7 µM (inactive) | 17.5 µM (inactive) | 11.4 µM (inactive) | 7.52 µM (inactive) | 24.2 µM (inactive) | 12.2 µM (inactive) | 24.1 µM (inactive) | 8.3 µM (inactive) | 12.1 µM (inactive) | 17.8 µM (inactive) | 16.6 µM (inactive) | 4.99 µM (inactive) | 15.2 µM (inactive) | 2.15 µM (inactive) | 21.1 µM (inactive) | 16 µM (inactive) | 10.9 µM (inactive) | 2.12 µM (inactive) | 16.8 µM (inactive)
C/C=C(/C)C(=O)O[C@@H]1CCN2CC[C@H](COC(=O)/C(=C/C)CO)C12 (stereo not given in full) | 32 µM (inactive) | > 100 µM (inactive) | 26.9 µM (inactive) | > 75 µM (inactive) | > 100 µM (inactive) | > 100 µM (inactive) | > 53.8 µM (inactive) | > 100 µM (inactive) | 20.6 µM (inactive) | 48.8 µM (inactive) | 59.6 µM (inactive) | > 87.7 µM (inactive) | > 100 µM (inactive) | > 100 µM (inactive) | 11.2 µM (inactive) | 41.4 µM (inactive) | > 100 µM (inactive) | 61.8 µM (inactive) | > 59.8 µM (inactive) | 58.2 µM (inactive)
CC(=O)NC(CS/N=N/c1[nH]cnc1C(N)=O)C(=O)O (stereo not given) | 2.16 µM (inactive) | > 76.2 µM (inactive) | 27 µM (inactive) | > 100 µM (inactive) | 6.71 µM (inactive) | > 100 µM (inactive) | 39.3 µM (inactive) | 2.15 µM (inactive) | 7.24 µM (inactive) | 5.5 µM (inactive) | 5.57 µM (inactive) | 2.82 µM (inactive) | > 46.8 µM (inactive) | 6.27 µM (inactive) | 0.791 µM (active) | 2.42 µM (inactive) | 4.21 µM (inactive) | 0.343 µM (active) | 1.16 µM (inactive) | 6.93 µM (inactive)
